Source: patent EP0107306A1, “Imidazoline derivatives” (BEECHAM GROUP PLC, priority 1982, dated 1984)
Counter-ions that a name gives are not always drawn. Marks after values point to notes of the source that are not given here.

Test system: E coli B44 (09:K90:K99)
Assay: Protection of neonatal mice from lethal enteropathogenic E coli infection
Type: in vivo
Settings: 4 day old mice orally infected; for % Protection by drug: mortality in drug group compared with placebo group
Experimental: 4 day old mice were orally dosed with 50pl of phosphate buffered saline containing 1 x 10^5 organisms/ml of E coli B44 (09:K90:K99) an enteropathogenic strain originally isolated from a scouring calf. The mice were then dosed b.i.d. with either placebo or drug for four days commencing 16 hours after infection. The animals were left with their mothers throughout the experiment and a daily record of deaths was made. The experiment was terminated when no mortality was seen over a 24 hour period. (Usually 7-10 days after infection). The mortality in the drug group was then compared with the mortality in the placebo group using the following formula:- [formula]
where Mp = mortality in group receiving placebo Md = mortality in group receiving drug
Statistical analysis was performed using 2 x 2 contingency tables (single tailed 'p').

[1] = drug 10mg/kg b.i.d. for four days commencing 16 hours after infection
[2] = drug 10mg/kg b.i.d. for four days

Compound	% Mortality [1] [%]	No of mice dead after 10 days [1]	% Protection by drug [2]	% Mortality (drug 50mg/kg b.i.d. for four days commencing 16 hours after infection) [%]	No of mice dead after 10 days (drug 50mg/kg b.i.d. for four days commencing 16 hours after infection, 68 mice infected)	% Protection by drug (drug 50mg/kg b.i.d. for four days)
C[N+](C)(C)Cc1cc(Cl)c(N=C2NCCN2)c(Cl)c1 [Example 6, 2-(2,6-Dichloro-4-trimethylammoniomethylphenylimino)-imidazolidine bromide Hydrobromide.]	71	52	15%	–	–	–
CC[N+](CC)(CC)Cc1cc(Cl)c(N=C2NCCN2)c(Cl)c1 [Example I, 2,(2,6-Dichloro-4-triethylammoniomethylphenylimino)-imidazolidine bromide]	32	22	40* %	29	20	46* %
